Assay results published in patent US20220313658A1, “YAP Inhibition for Wound Healing” (The Board of Trustees of the Leland Stanford Junior …, priority 2019, published 2022).

Columns and labels:
dorsal excisional wounds = assay: Tensile strength testing (Instron) of healed wounds; format: in vivo, mouse
Method: Tensile strength tests for unwounded skin (N=7) and PBS (N=5) or Verteporfin-treated (N=4) wounds in P60 C57BL/6 mice were conducted at POD 30 using an Instron 5565 equipped with a 100 N load cell. Dorsal skin was harvested and cut into 4 mm-by-15 mm strips. Tissue strips were then secured using custom grips with the scar positioned equidistant to each grip edge and preloaded to a force of 0.02 N to remove slack before the length of the tissue was measured using digital calipers; the width and thickness of the strips were also re-measured to confirm accurate dimensions. Finally, the skin was subjected to an extension test to failure, defined by a sharp decrease in stress with increasing strain, at a rate of 1%/s. The wound breaking force, or yield force, was determined at the maximal force before the tissue entered plastic deformation and eventual failure. True strain was calculated as the change in length divided by the original gauge length, and true stress was calculated as the force divided by the original cross-sectional area. The Young's Modulus was calculated by taking a least-squares regression of the slope during the linear, elastic portion of the stress-strain curve (R^2>0.99). […] In order to characterize the physical properties of Verteporfin-treated wounds, tensile testing was performed on unwounded skin and PBS- or Verteporfin-treated wounds after 30 days of healing.

[1] = tested on: mechanically loaded dorsal incisional wounds; assay: Mechanical loading of dorsal incisional wounds with Verteporfin treatment; format: in vivo, mouse
Method: 20 mm-long linear wounds were produced on the dorsum of P60 En-1^Cre-ERT;Ai6 mice and then closed with sutures. On POD 4, a loading device (constructed from 22 mm expansion screws and Luhr plate supports) was secured over each wound with adhesive and simple interrupted sutures. For mice receiving mechanotransduction signaling inhibitor, 30 μL of Verteporfin (1 mg/mL) was injected along the suture line both at POD 0 and POD 4; PBS was injected into wounds for vehicle controls. Device tension was increased by distracting expansion 2 mm every 2 days for 10 days total. Mice with unexpanded devices served as sham surgery controls. On POD 14, wounds were harvested and processed for histology to characterize the effects of increased wound tension on activation of ENFs to scarring pEPFs. In FIG. 2, G-I, a minimum of 4 mice was used for each experimental group.
Tissues were fixed in 2% paraformaldehyde for 16 h at 4° C. Samples were prepared for embedding by soaking in 30% sucrose in PBS for 1 week at 4° C. Samples were then removed from the sucrose solution, and tissue blocks were prepared by embedding in Tissue Tek U.C.T. (Sakura Finetek) under dry ice to achieve rapid freezing. Frozen blocks were mounted on a Thermo Scientific CryoStar NX70 cryostat, and 10 μm-thick sections were transferred to SuperfrostfPlus adhesive slides (Fisher). For hematoxylin and eosin staining, standard protocols were used with no modifications. For immunofluorescent staining, slides were blocked for 1 hr with Power Block (Biogenex) prior to addition of the following primary antibodies: Abeam ab34710 (anti-collagen type I), Abeam ab28340 (anti-CD26), Invitrogen MA5-15915 (anti-Dlk1), Abeam ab51317 (anti-Scat), Abeam ab5694 (anti-α-SMA), Santa Cruz Biotechnology sc-101199 (anti-YAP), Abeam ab7800 (anti-CK14), and Abeam ab52625 (anti-CK19). Slides were then incubated for 1 h with Alexa Fluor 568 or Alexa Fluor 647-conjugated anti-rabbit, anti-rat, or anti-mouse antibodies (Invitrogen). Finally, slides were mounted in Fluoromount-G mounting solution with DAPI (Thermo Fisher). Brightfield images were acquired with a Leica DMI4000B microscope, while fluorescent images were acquired with a Leica DM6000 SP5 upright confocal microscope.
Then, whether mechanical tension similarly promoted ENF-to-EPF transition in vivo was assessed. […]

ENFs = assay: Bulk RNA-seq of ENFs cultured on TCPS in the presence of Verteporfin; format: cell-based, mouse
Method: Total RNA was harvested by lysing cells in Trizol reagent (Invitrogen), RNA extraction and library preparation was performed by the Stanford Functional Genomics facility using standard Qiagen kits and protocols. Directional RNA-Sal libraries were analyzed with an Agilent Bioanalyzer to ensure successful library creation, and then sequenced with the Illumina HiSeq 4000 System (2×75 bp, 150 cycles), Paired-end reads were mapped to the mouse genome reference sequence mm10 using the STAR aligner. […] It is common practice to normalize read counts by the total number of reads and the length of each transcript, yielding reads per kilobase mapped (RPKM) values. However, such analysis may be skewed towards a few highly expressed genes that dominate the total lane count. Thus, instead, counts were normalized by a size factor, calculated by taking the median of the ratios of observed counts to those of a pseudo-reference sample (whose counts are the geometric means of each gene across all samples). For hypothesis testing of differential gene transcription, the read counts were modeled according to a negative binomial distribution, with the variance considered as the sum of the shot noise term and a locally regressed non-parametric smooth function of the mean. […] Raw RNA-seq data can be accessed at the following Github repository: https://github.com/[…]. […] Ranked whole genome enrichment analyses in FIGS. 6 and 7 were performed using GSEA software developed by the Broad Institute with nominal p value and false discovery rate (FDR) cutoffs of 0.01 and 0.25, respectively. All g.Profiler and GSEA results are available in the following Github repository: https://github.com/[…]. In order to ascertain whether in vitro En-1 activation involved a shift toward a fibrotic transcriptomic profile, bulk ENFs were isolated from En-1^Cre;R26^mTmG mice and grew these cells on TCPS for 2 days (at which point ENFs remain single cells), 7 days (when ENFs form colonies), or 14 days (when ENFs activate En-1) (experimental schematic in FIG. 3, A). Cultured cells were then subjected to bulk RNA-seq analysis. Next, to assess if postnatal En-1 activation was dependent on mechanotransduction signaling, ENFs cultured on TCPS were grown in the presence of Verteporfin. After 14 days in culture, treated cells were subjected to RNA-seq. […] GO term analysis in g.

[2] = ENFs on TCPS, 14 days with Verteporfin

verteporfin
Force-displacement and stress-strain curves (dorsal excisional wounds; after 1 month of healing): more closely resembled unwounded skin than scar
Tensile strength (wound breaking force and Young's modulus) (dorsal excisional wounds; after 30 days of healing, vs unwounded skin): did not significantly differ from that of unwounded skin
Gross appearance of mechanically loaded wounds ([1]; 30 μL of 1 mg/mL injected at POD 0 and POD 4, harvested POD 14): grossly resembled control (non-mechanically loaded) wounds
Number of pEPFs (GFP+ cells) in wounds ([1]; compared to mechanically loaded, non-Verteporfin treated wounds, POD 14): significantly fewer pEPFs
YAP and a-SMA expression (immunofluorescent staining) ([1]; compared to untreated mechanically loaded wounds, POD 14): decreased YAP and a-SMA expression
Number of YAP+ cells in wounds ([1]; mechanically loaded wounds, POD 14): significantly fewer YAP+ cells
Expression of ECM / pro-fibrotic matrix genes (ENFs; [2]): reduced expression of various ECM genes
GO term enrichment (g.Profiler) (ENFs; [2]): decreased enrichment of ECM-related terms and relatively higher muscle development-related terms
Transcriptomic shift over time in culture (RNA-seq) (ENFs; ENFs on TCPS, 14 days with Verteporfin, vs untreated cells): attenuated the transcriptomic shift observed in untreated cells
Expression of ECM / pro-fibrotic matrix genes (ENFs; ENFs on TCPS, 14 days with Verteporfin, listed as Vert): mitigated
Principal component analysis of RNA-seq data (ENFs; ENFs treated with Verteporfin for 14 days): more closely resembled untreated cells that had only been in culture for 2 days
